Experimental data taken from ChEMBL document CHEMBL1157801, “Discovery of an in vitro and in vivo potent resorcylic lactone analog of LL-Z1640-2 as anti-inflammatory lead, II” (Bioorg Med Chem Lett, 2010).
Active and inactive are the calls of the source. No cut-off for these calls is given here.

Columns and labels:
U-937 [1] = test: Inhibition of PALP-fussed actin production in human U937 cells; assay type: functional, cell-based
U-937 [2] = test: Inhibition of PALP-fussed TNFalpha production in human U937 cells; assay type: functional, cell-based
Mus musculus = test: Antiinflammatory activity in iv dosed mouse assessed as inhibition of LPS-stimulated TNFalpha production; assay type: functional

SMILES | IC50 (U-937 [1]) | IC50 (U-937 [2]) | ED50 (Mus musculus)
C[C@@H]1/C=C\C(=O)[C@@H](O)[C@@H](O)C/C=C/c2cc(OCC(O)CO)cc(O)c2C(=O)O[C@H]1C (some centres undefined) | > 10000 nM | 383 nM | –
CCOc1cc(O)c2c(c1)/C=C/C[C@H](O)[C@H](O)C(=O)/C=C\[C@@H](C)[C@H](C)OC2=O | > 10000 nM | 100 nM | 12 mg/kg
C[C@@H]1/C=C\C(=O)[C@@H](O)[C@@H](O)C/C=C/c2cc(OCCN3CCOCC3)cc(O)c2C(=O)O[C@H]1C | > 10000 nM | 59 nM | –
C[C@@H]1/C=C\C(=O)[C@@H](O)[C@@H](O)C/C=C/c2cc(OCCn3ccnc3)cc(O)c2C(=O)O[C@H]1C | > 10000 nM | 15 nM | 6.5 mg/kg
C[C@@H]1/C=C\C(=O)[C@@H](O)[C@@H](O)C/C=C/c2cc(OCCN(C)C)cc(O)c2C(=O)O[C@H]1C | > 10000 nM | 597 nM | –
CCCCOc1cc(O)c2c(c1)/C=C/C[C@H](O)[C@H](O)C(=O)/C=C\[C@@H](C)[C@H](C)OC2=O | > 10000 nM | 325 nM | –
CC(=O)NCC(=O)COc1cc(O)c2c(c1)/C=C/C[C@H](O)[C@H](O)C(=O)/C=C\[C@@H](C)[C@H](C)OC2=O | > 10000 nM | 31 nM | –
C[C@@H]1/C=C\C(=O)[C@@H](O)[C@@H](O)C/C=C/c2cc(OCCNc3ccccn3)cc(O)c2C(=O)O[C@H]1C | > 10000 nM | 113 nM | –
CCCOc1cc(O)c2c(c1)/C=C/C[C@H](O)[C@H](O)C(=O)/C=C\[C@@H](C)[C@H](C)OC2=O | > 10000 nM | 249 nM | –
COc1ccc(COc2cc(O)c3c(c2)/C=C/C[C@H](O)[C@H](O)C(=O)/C=C\[C@@H](C)[C@H](C)OC3=O)cc1 | > 10000 nM | 168 nM | –
C[C@@H]1/C=C\C(=O)[C@@H](O)[C@@H](O)C/C=C/c2cc(OCCn3ccnn3)cc(O)c2C(=O)O[C@H]1C | > 10000 nM | 43 nM | –
CC(=O)NCCOc1cc(O)c2c(c1)/C=C/C[C@H](O)[C@H](O)C(=O)/C=C\[C@@H](C)[C@H](C)OC2=O | > 10000 nM | 65 nM | –
COc1cc(O)c2c(c1)OCC[C@H](O)[C@H](O)C(=O)/C=C\[C@@H](C)[C@H](C)OC2=O | > 10000 nM | 1680 nM | –
C[C@@H]1/C=C\C(=O)[C@@H](O)[C@@H](O)C/C=C/c2cc(O)cc(O)c2C(=O)O[C@H]1C | > 10000 nM | 515 nM | –
COc1cc(O)c2c(c1Br)/C=C/C[C@H](O)[C@H](O)C(=O)/C=C\[C@@H](C)[C@H](C)OC2=O | > 10000 nM | 804 nM | –
COc1cc(O)c2c(c1)/C=C/C[C@H](O)[C@H](O)C(=O)/C=C\[C@@H](C)[C@H](C)OC2=O | > 10000 nM | 136 nM | 13.2 mg/kg
COc1cc(O)c2c(c1)/C=C/C[C@H](O)[C@H](O)C(=O)/C=C\C[C@H](C)OC2=O | – | – | inactive
COc1cc(O)c2c(c1)NC(=O)C[C@H](O)[C@H](O)C(=O)/C=C\[C@@H](C)[C@H](C)OC2=O | > 10000 nM | 293 nM | –
C[C@@H]1/C=C\C(=O)[C@@H](O)[C@@H](O)C/C=C/c2cc(OCc3ccc(Cl)c(Cl)c3)cc(O)c2C(=O)O[C@H]1C | > 10000 nM | 752 nM | –
C[C@@H]1/C=C\C(=O)[C@@H](O)[C@@H](O)C/C=C/c2cc(OCc3ccccc3)cc(O)c2C(=O)O[C@H]1C | > 10000 nM | 319 nM | –
CC(C)Oc1cc(O)c2c(c1)/C=C/C[C@H](O)[C@H](O)C(=O)/C=C\[C@@H](C)[C@H](C)OC2=O | > 10000 nM | 687 nM | –
C[C@@H]1/C=C\C(=O)[C@@H](O)[C@@H](O)C/C=C/c2cc(OC(F)F)cc(O)c2C(=O)O[C@H]1C | > 10000 nM | 615 nM | –
C[C@@H]1/C=C\C(=O)[C@@H](O)[C@@H](O)C/C=C/c2cc(OCCCS(C)(=O)=O)cc(O)c2C(=O)O[C@H]1C | > 10000 nM | 32 nM | 9.8 mg/kg
